“Also recorded” adds a separate entry of the source.
Test system: human skin explants
Assay: Exfoliating action of plant extracts on human skin explants ex vivo (morphology of the stratum corneum)
Assay type: cell-based
Details: for Exfoliating activity, Result: day 4, compared to control group TJ
Protocol: Particular attention is paid to the morphology of the stratum corneum.
Activity is assessed by examination of the morphology.
The explants were stored in BEM (BIO-EC's Explants Medium) at 37° C. in a humid atmosphere enriched with 5% C02.
The test product is applied topically at a rate of 2 μl per explant, using a spatula to spread, on days 0, 2 and 3.
On day 0, the 3 explants of batch T0 were removed and cut into 2. One portion was fixated in a buffered formalin solution and the second part was frozen at −80° C. At Day 4, the 3 explants of each batch were taken and treated in the same manner.
After a fixation of 24 hours in buffered formalin, the samples were dried and soaked in paraffin using an automatic dehydration system, Leica TP 1020. They were embedded in a resin using a coating system Leica EG 1160.
Slices of 5 microns have been produced using a microtome type Minot Leica RM 2125 and mounted on microscope slides type histological SuperFrost®.
Microscopic observations were performed by optical microscopy, using a Leica Orthoplan microscope and an Olympus BX43. The shots were made with an Olympus DP72 camera and Cell ^ D software.
Paraffin sections were stained with Masson's trichrome stain, Goldner variant. Microscopic examination was carried out to assess the general morphology of the dermal and epidermal structures.
Particular attention was paid to the morphology of the Stratum Corneum.

SMILES | exfoliation of the upper layers of the stratum corneum (morphology) (0.25% (C3), day 4) | exfoliation of the upper layers of the stratum corneum (morphology) (0.5% (C2), day 4) | Exfoliating activity, Result (0.5% (C2)) | exfoliation of the upper layers of the stratum corneum (morphology) (1% (C1), day 4) | number of cell layers of the SC (1% (C1), day 4) | Exfoliating activity, Result (1% (C1)) | number of cell layers of the SC (0.5% (C2), day 4) | exfoliating activity, comparison of products (especially samples of 1% concentration, day 4)
CC(O)C(=O)O (stereo not drawn) [Product P3, Lactic acid] | appeared normal; also recorded: no appreciable exfoliating activity | very light exfoliation of the upper layers | 2 | light exfoliation of the upper layers | slightly reduced | 4 | – | –
O=C(O)c1ccccc1O [Product P1, Natural Salicylic Acid] | appeared normal; also recorded: does not present a significant exfoliating activity | appeared normal; also recorded: does not present a significant exfoliating activity | – | light exfoliation of the upper layers | slightly reduced | 4 | – | –
O=C(O)C(Cl)(Cl)Cl [Product P6, trichloroacetic acid] | appeared normal; also recorded: no significant activity in the exfoliation | light and irregular exfoliation of the upper layers; also recorded: uneven exfoliation | 4 | moderate exfoliation of the upper layers | moderately reduced | 6 | slightly reduced | best exfoliating activity
O=C(O)CO [Product P4, glycolic acid] | appeared normal; also recorded: no appreciable exfoliating activity | very light and irregular exfoliation of the upper layers | 3 | light and irregular exfoliation of the upper layers; also recorded: slight irregular exfoliation | – | 4 | – | –

— patent US11033597B2, “Dermatological kit comprising compositions based on hibiscus flower and buriti oil” (MEDICAL BRANDS RESEARCH B.V., priority 2014, dated 2021)
